Experimental findings from patent US20230131899A1, “INHIBITORS OF MICROBIALLY INDUCED AMYLOID” (Axial Therapeutics, Inc., priority 2020, published 2023) are described below.

Assay [1] concerns CsgA expression in E. coli MC4100. Description: Monocolonized Mouse Model: csgA expression in fecal pellets by qRT-PCR. As to conditions: 30 mg/kg, day five of treatment, relative to mice treated with vehicle alone (FIGS. 4A-B).
A further assay deals with T1, human α-synuclein (Homo sapiens, UniProt P37840).
T1 construct: the full-length gene for untagged human α-synuclein was inserted; made in house; host or cells: E. coli BL21(DE3), plasmid derived from pT7 or pET11a
Description: Cell-free Thioflavin T assay of α-synuclein aggregation (αSyn ThT Assay). The format is biochemical. The conditions noted are these: αSyn 50 μM. The procedure, abridged:
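Untagged full-length human α-synuclein from E. coli, 50 μM, with 20-40 μM ThT, 1% DMSO, compound at 20-100 μM and a glass bead, 37° C. with shaking. Fluorescence (ex 438/em 495 nm) read hourly to 73 h. Compound-only background subtracted and values normalised to vehicle at 36-72 h or final timepoint, giving % inhibition.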

In a further assay the test system is number of fecal pellets. The assay is described as follows: Fecal pellet output in MC4100 mice treated with compound vs control chow (FIG. 5). The format is in vivo, mouse. The conditions noted are these: 12-14 weeks of age; compared to MC4100-control chow group; statistical difference was not reached.
For assay [2], the system named is csgA expression in E. coli MC4100. The assay is described as follows: csgA expression relative to housekeeping genes recA and cysG in E. coli MC4100 monocolonized mice (FIGS. 8A-D). It counts as in vivo.
Assay [3] relates to time to descend from a pole. Description: Pole descent test in MC4100 mice treated with compound vs control chow (FIG. 7). The format is in vivo, mouse. The conditions noted are these: 18-20 weeks of age; vs MC-4100 control chow group.
The test system of another assay is fecal water content. Description: Fecal water content in MC4100 mice treated with compound vs control chow (FIG. 6). The format is in vivo, mouse. As to conditions: 12-14 weeks of age; vs MC4100-control chow group.
Where [4] appears, read: mean % inhibition of αSyn aggregation relative to DMSO control, compounds at 100 μM, read-out: αSyn ThT Assay % Inhibition.
The mark [5] stands for this setting: compounds at 100 μM, class symbol, read-out: αSyn ThT Assay % Inhibition (activity range).
Setting [6] is: class symbol, compounds 100 μM, read-out: αSyn ThT Assay % inhibition, activity range.
Where [7] appears, read: mean percent inhibition relative to DMSO control, compounds 100 μM, read-out: αSyn ThT Assay % inhibition.

Where two headings read alike, the source gives them in different places.

For the molecule `CN1CC(C(=O)O)n2c(c(-c3cccc(C(F)(F)F)c3)c(Cc3cccc4ccccc34)c(NC3CCCC3)c2=O)S1(=O)=O` (stereo not drawn) [Compound 070, 7-(cyclopentylamino)-2-methyl-8-(naphthalen-1-ylmethyl)-6-oxo-9-(3-(trifluoromethyl)phenyl)-3,4-dihydro-2H,6H-pyrido[1,2-e][1,2,5]thiadiazine-4-carboxylic acid 1,1-dioxide], the “csgA expression in E. coli MC4100 monocolonized mice” value in assay [1] is recorded as “reduction of csgA expression”. Moreover, the inhibition (usually the share of the control response that was lost under treatment) at 100 µM on human α-synuclein (setting [4]) is 53%; at human α-synuclein (setting [5]) it was 31 to 60%.
On to `O=C(O)[C@@H]1CN(Cc2ccccc2)c2c(-c3cccc(C(F)(F)F)c3)c(Cc3cccc4ccccc34)c(Cl)c(=O)n21` (single isomer, unassigned) [Compound 004a], for which, in the assay with number of fecal pellets, the “number of fecal pellets a mouse produced at 15 min interval” value is “overall increase in number of fecal pellets”. Moreover, the “csgA expression relative to housekeeping genes recA and cysG” value in assay [2] (12-14 weeks of age) is “reduction of csgA expression”; in assay [2] (14-16 weeks of age), “repeated and observed again”. Further, the inhibition at 100 µM at human α-synuclein (setting [6]) was 31 to 60%; on human α-synuclein (setting [7]), 42%. Further, the “time to descend from a pole into a home cage” value in assay [3] was “trend towards improvement of the phenotype”. Moreover, the fecal water content entry in the assay with fecal water content is listed as “restored a constipation phenotype”.
With `Cn1c(=O)c2c(nc(CCCCCN3CC(C(=O)O)n4c(c(-c5cccc(C(F)(F)F)c5)c(Cc5cccc6ccccc56)cc4=O)S3(=O)=O)n2C)n(C)c1=O` (stereo not drawn) [Compound 045, 8-(naphthalen-1-ylmethyl)-6-oxo-9-(3-(trifluoromethyl)phenyl)-2-(5-(1,3,7-trimethyl-2,6-dioxo-2,3,6,7-tetrahydro-1H-purin-8-yl)pentyl)-3,4-dihydro-2H,6H-pyrido[1,2-e][1,2,5]thiadiazine-4-carboxylic acid 1,1-dioxide], the values for the inhibition at 100 µM on human α-synuclein (setting [4]) and at human α-synuclein (setting [5]) were 15% and 11 to 30%, respectively.
On to `CCCN1CC(C(=O)O)n2c(c(-c3cccc(C(F)(F)F)c3)c(Cc3cccc4ccccc34)c(Cl)c2=O)S1(=O)=O` (stereo not drawn) [Compound 142, 7-chloro-8-(naphthalen-1-ylmethyl)-6-oxo-2-propyl-9-(3-(trifluoromethyl)phenyl)-3,4-dihydro-2H,6H-pyrido[1,2-e][1,2,5]thiadiazine-4-carboxylic acid 1,1-dioxide], for which the inhibition at 100 µM is 31 to 60% at human α-synuclein (setting [6]) and 40% on human α-synuclein (setting [7]).
Take `O=C(O)C1CN(C[C@H](O)[C@@H](O)[C@H](O)[C@H](O)CO)S(=O)(=O)c2c(-c3cccc(C(F)(F)F)c3)c(Cc3cccc4ccccc34)cc(=O)n21` (mixture of isomers) [Compound 066, 8-(naphthalen-1-ylmethyl)-6-oxo-2-((2S,3R,4R,5R)-2,3,4,5,6-pentahydroxyhexyl)-9-(3-(trifluoromethyl)phenyl)-3,4-dihydro-2H,6H-pyrido[1,2-e][1,2,5]thiadiazine-4-carboxylic acid 1,1-dioxide]: the inhibition at 100 µM on human α-synuclein (setting [4]) was 13%; at human α-synuclein (setting [5]), 11 to 30%.
With `CCc1c(Cc2cccc3ccccc23)c(-c2cccc(C(F)(F)F)c2)c2n(c1=O)C(C(=O)O)CN2Cc1ccc(OC)cc1` (stereo not drawn) [Compound 161, 6-ethyl-1-(4-methoxybenzyl)-7-(naphthalen-1-ylmethyl)-5-oxo-8-(3-(trifluoromethyl)phenyl)-1,2,3,5-tetrahydroimidazo[1,2-a]pyridine-3-carboxylic acid], the inhibition at 100 µM is 31 to 60% at human α-synuclein (setting [6]) and 44% on human α-synuclein (setting [7]).
On to `Cn1c(=O)c2c(nc(CCCCCCN3CC(C(=O)O)n4c(c(-c5cccc(C(F)(F)F)c5)c(Cc5cccc6ccccc56)cc4=O)S3(=O)=O)n2C)n(C)c1=O` (stereo not drawn) [Compound 046, 8-(naphthalen-1-ylmethyl)-6-oxo-9-(3-(trifluoromethyl)phenyl)-2-(6-(1,3,7-trimethyl-2,6-dioxo-2,3,6,7-tetrahydro-1H-purin-8-yl)hexyl)-3,4-dihydro-2H,6H-pyrido[1,2-e][1,2,5]thiadiazine-4-carboxylic acid 1,1-dioxide], for which the inhibition at 100 µM at human α-synuclein (setting [4]) is 28%; at human α-synuclein (setting [5]) it was 11 to 30%.
As for `O=C(O)C1CN(Cc2ccccc2)c2c(-c3cccc(C(F)(F)F)c3)c(C(F)(F)c3cccc4ccccc34)c(Br)c(=O)n21` (stereo not drawn) [Compound 155, 1-benzyl-6-bromo-7-(difluoro(naphthalen-1-yl)methyl)-5-oxo-8-(3-(trifluoromethyl)phenyl)-1,2,3,5-tetrahydroimidazo[1,2-a]pyridine-3-carboxylic acid], the results for the inhibition at 100 µM at human α-synuclein (setting [6]) and at human α-synuclein (setting [7]) were 31 to 60% and 60%, respectively.
Consider `CNC(=O)CCCCN1CC(C(=O)O)n2c(c(-c3cccc(C(F)(F)F)c3)c(Cc3cccc4ccccc34)cc2=O)S1(=O)=O` (stereo not drawn) [Compound 038, 2-(5-(methylamino)-5-oxopentyl)-8-(naphthalen-1-ylmethyl)-6-oxo-9-(3-(trifluoromethyl)phenyl)-3,4-dihydro-2H,6H-pyrido[1,2-e][1,2,5]thiadiazine-4-carboxylic acid 1,1-dioxide], for which the inhibition at 100 µM at human α-synuclein (setting [4]) was 42%; at human α-synuclein (setting [5]), 31 to 60%.
Take `CCc1c(Cc2cccc3ccccc23)c(-c2cccc(C(F)(F)F)c2)c2n(c1=O)C(C(=O)O)CN2Cc1ccccc1` (stereo not drawn) [Compound 140, 1-benzyl-6-ethyl-7-(naphthalen-1-ylmethyl)-5-oxo-8-(3-(trifluoromethyl)phenyl)-1,2,3,5-tetrahydroimidazo[1,2-a]pyridine-3-carboxylic acid]: the figures for the inhibition at 100 µM on human α-synuclein (setting [6]) and on human α-synuclein (setting [7]) were 31 to 60% and 48%, respectively.
With `O=C(O)c1c(-c2ccccc2)sc2c(-c3cccc(C(F)(F)F)c3)c(Cc3cccc4ccccc34)cc(=O)n12` [Compound 051, 7-(naphthalen-1-ylmethyl)-5-oxo-2-phenyl-8-(3-(trifluoromethyl)phenyl)-5H-thiazolo[3,2-a]pyridine-3-carboxylic acid], the inhibition at 100 µM on human α-synuclein (setting [4]) was 47%; on human α-synuclein (setting [5]) it was 31 to 60%.
For `CCCN1CC(C(=O)O)n2c(c(-c3cccc(C(F)(F)F)c3)c(Cc3cccc4ccccc34)cc2=O)S1(=O)=O` (single isomer, unassigned) [Compound 016b, 8-(naphthalen-1-ylmethyl)-6-oxo-2-propyl-9-(3-(trifluoromethyl)phenyl)-3,4-dihydro-2H,6H-pyrido[1,2-e][1,2,5]thiadiazine-4-carboxylic acid 1,1-dioxide] the same measures were 95% and > 60%.
Take `O=C(O)C1CN(CC2CCOCC2)c2c(-c3cccc(C(F)(F)F)c3)c(Cc3cccc4ccccc34)c(Cl)c(=O)n21` (stereo not drawn) [Compound 182, 6-chloro-7-(naphthalen-1-ylmethyl)-5-oxo-1-((tetrahydro-2H-pyran-4-yl)methyl)-8-(3-(trifluoromethyl)phenyl)-1,2,3,5-tetrahydroimidazo[1,2-a]pyridine-3-carboxylic acid]: the inhibition at 100 µM at human α-synuclein (setting [6]) was 31 to 60%; on human α-synuclein (setting [7]), 33%.
In the case of `Cc1c(Cc2cccc3ccccc23)c(-c2cccc(C(F)(F)F)c2)c2n(c1=O)C(C(=O)O)CN(C)S2(=O)=O` (stereo not drawn) [Compound 068, 2,7-dimethyl-8-(naphthalen-1-ylmethyl)-6-oxo-9-(3-(trifluoromethyl)phenyl)-3,4-dihydro-2H,6H-pyrido[1,2-e][1,2,5]thiadiazine-4-carboxylic acid 1,1-dioxide], the inhibition at 100 µM on human α-synuclein (setting [4]) was 74%; on human α-synuclein (setting [5]), > 60%.
For `CNC(=O)C1CN(C)S(=O)(=O)c2c(-c3cccc(C(F)(F)F)c3)c(Cc3cccc4ccccc34)cc(=O)n21` (stereo not drawn) [Compound 031, N,2-dimethyl-8-(naphthalen-1-ylmethyl)-6-oxo-9-(3-(trifluoromethyl)phenyl)-3,4-dihydro-2H,6H-pyrido[1,2-e][1,2,5]thiadiazine-4-carboxamide 1,1-dioxide] the same measures were 18% and 11 to 30%.
